The test system of this experiment is 313798-341-R-J2-PDC spheroids, viability. Nature of the experiment: Anticancer human tumor 313798-341-R-J2-PDC patient-derived cervical squamous cell carcinoma cell line growth inhibition [PI3K]. As to conditions: spheroids with HUVEC and MSC; for viability, T/C: stronger effect = lower value. Put shortly:
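Spheroid viability read-out. Co-cultures contained the tumor line plus HUVEC and human MSCs. Each agent was paired with a PI3K inhibitor (inavolisib, alpelisib, duvelisib, copanlisib) across half-log dilutions starting at clinical Cmax, or at 10 microM when Cmax was unknown.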

Setting [1] is: curve of first compound, second compound 0.0316 µM.
Setting [2] is: curve of first compound, second compound 0.1 µM.
[3] abbreviates: curve of first compound, second compound 0.316 µM.
[4] abbreviates: curve of first compound, second compound 1 µM.
Setting [5] is: second compound 0.0316 µM, first compound 0.0316 µM.
[6] abbreviates: second compound 0.0316 µM, first compound 0.1 µM.
Setting [7] is: second compound 0.0316 µM, first compound 0.316 µM.
Where [8] appears, read: second compound 0.0316 µM, first compound 1 µM.
[9] abbreviates: second compound 0.0316 µM, first compound 3.16 µM.
Where [10] appears, read: second compound 0.0316 µM, first compound 10 µM.
Where [11] appears, read: second compound 0.1 µM, first compound 0.0316 µM.
Where [12] appears, read: second compound 0.1 µM, first compound 0.1 µM.
The mark [13] stands for this setting: second compound 0.1 µM, first compound 0.316 µM.
Where [14] appears, read: second compound 0.1 µM, first compound 1 µM.
[15] abbreviates: second compound 0.1 µM, first compound 3.16 µM.
The mark [16] stands for this setting: second compound 0.1 µM, first compound 10 µM.
Setting [17] is: second compound 0.316 µM, first compound 0.0316 µM.
Setting [18] is: second compound 0.316 µM, first compound 0.1 µM.
The mark [19] stands for this setting: second compound 0.316 µM, first compound 0.316 µM.
Setting [20] is: second compound 0.316 µM, first compound 1 µM.
Setting [21] is: second compound 0.316 µM, first compound 3.16 µM.
Where [22] appears, read: second compound 0.316 µM, first compound 10 µM.
Where [23] appears, read: second compound 1 µM, first compound 0.0316 µM.
[24] abbreviates: second compound 1 µM, first compound 0.1 µM.
[25] abbreviates: second compound 1 µM, first compound 0.316 µM.
Where [26] appears, read: second compound 1 µM, first compound 1 µM.
Setting [27] is: second compound 1 µM, first compound 3.16 µM.
[28] abbreviates: second compound 1 µM, first compound 10 µM.

Values joined by “and” are separate entries in the source; they are usually repeats but may differ in a detail not shown here. Equal values may be shown once.
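Also: spheroids exposed to compounds for seven days.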
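For viability, T/C in this document: 100% = DMSO vehicle control viability.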

Broadly, the IC50 is the midpoint of a concentration-inhibition curve. Broadly, the viability, T/C is the ratio of treated to control. In the case of `CC1(C)CCC(CN2CCN(c3ccc(C(=O)NS(=O)(=O)c4ccc(NCC5CCOCC5)c([N+](=O)[O-])c4)c(Oc4cnc5[nH]ccc5c4)c3)CC2)=C(c2ccc(Cl)cc2)C1` + CC(Nc1ccc2c(c1)OCCn1cc(N3C(=O)OCC3C(F)F)nc1-2)C(N)=O, the IC50 is, setting by setting: (curve of first compound, second compound 0.00316 µM) 5510 nM; (curve of first compound, second compound 0.01 µM) 5660 nM; under setting [1], 5410 nM; under setting [2], 4710 nM; under setting [3], 2190 nM; under setting [4], 609 nM. Besides, the viability, T/C reads like this: (second compound 0.00316 µM, first compound 0.0316 µM) 93.1%; (second compound 0.00316 µM, first compound 0.1 µM) 92.4%; (second compound 0.00316 µM, first compound 0.316 µM) 95.5%; (second compound 0.00316 µM, first compound 1 µM) 89.4%; (second compound 0.00316 µM, first compound 3.16 µM) 81.3%; (second compound 0.00316 µM, first compound 10 µM) 16.9%. The viability, T/C by setting is: (second compound 0.01 µM, first compound 0.0316 µM) 100%; (second compound 0.01 µM, first compound 0.1 µM) 93.2%; (second compound 0.01 µM, first compound 0.316 µM) 98.5%; (second compound 0.01 µM, first compound 1 µM) 90.7%; (second compound 0.01 µM, first compound 3.16 µM) 84.2%; (second compound 0.01 µM, first compound 10 µM) 16.5%. For the same compound, the viability, T/C runs as follows: under setting [5], 92.6%; under setting [6], 86.3%; under setting [7], 89.5%; under setting [8], 93.2%; under setting [9], 78.3%; under setting [10], 17%. Also, the viability, T/C under setting [11] is 94.1%; the viability, T/C under setting [12] is 102%; the viability, T/C under setting [13] is 90.4%; the viability, T/C under setting [14] is 90.9%; the viability, T/C under setting [15] is 67.2%; the viability, T/C under setting [16] was 17%. The viability, T/C reads like this: under setting [17], 79.7%; under setting [18], 69.7%; under setting [19], 78.2%; under setting [20], 60.1%; under setting [21], 44.8%; under setting [22], 16.5%. The viability, T/C is, setting by setting: under setting [23], 51.6%; under setting [24], 49.7%; under setting [25], 51.8%; under setting [26], 49.2%; under setting [27], 35.8%; under setting [28], 14%.

On to `Cn1ncnc1[C@H]1c2n[nH]c(=O)c3cc(F)cc(c23)N[C@@H]1c1ccc(F)cc1`, for which the viability, T/C by setting is: (compound 0.001 µM) 94.9% [middle of 4 runs]; (compound 0.00316 µM) 94.7% [middle of 4 runs]; (compound 0.01 µM) 104% (2×) and 88.8% and 114%; (compound 0.0316 µM) 95.9% [middle of 4 runs]; (compound 0.1 µM) 89% [middle of 4 runs]. Moreover, the IC50 (curve of compound) is above 100 nM.

Regarding `Cn1cnc2c(F)c(Nc3ccc(Br)cc3Cl)c(C(=O)NOCCO)cc21`, the viability, T/C by setting is: (compound 0.00949 µM) 97.9% [middle of 4 runs]; (compound 0.03 µM) 92% [middle of 4 runs]; (compound 0.0949 µM) 89.5% [middle of 4 runs]; (compound 0.3 µM) 93.5% [middle of 4 runs]. For the same compound, the half-inhibitory concentration (IC50) (curve of compound) was 1380 nM and > 3000 nM.

For `CC1(C)CCC(Nc2ncc(C(F)(F)F)c(-c3c[nH]c4c(P(C)(C)=O)c(C#N)ccc34)n2)CN1` (stereo not given) + Cc1nc(NC(=O)N2CCCC2C(N)=O)sc1-c1ccnc(C(C)(C)C(F)(F)F)c1, the IC50 is, setting by setting: under setting [1], above 10000 nM; under setting [2], above 10000 nM; under setting [3], below 31.6 nM; under setting [4], below 31.6 nM; (curve of first compound, second compound 3.16 µM) below 31.6 nM; (curve of first compound, second compound 10 µM) below 31.6 nM. Further, the viability, T/C runs as follows: under setting [5], 64.5%; under setting [6], 49.2%; under setting [7], 52.4%; under setting [8], 54.4%; under setting [9], 58.8%; under setting [10], 71.9%. The viability, T/C reads like this: under setting [11], 54.9%; under setting [12], 50.8%; under setting [13], 50.3%; under setting [14], 53.1%; under setting [15], 54.1%; under setting [16], 66.6%. Further, the viability, T/C by setting is: under setting [17], 45.7%; under setting [18], 39.6%; under setting [19], 35.5%; under setting [20], 38.7%; under setting [21], 43.8%; under setting [22], 52.3%. For the same compound, the viability, T/C under setting [23] was 34.7%; the viability, T/C under setting [24] was 32.2%; the viability, T/C under setting [25] is 35.5%; the viability, T/C under setting [26] is 34.2%; the viability, T/C under setting [27] is 36%; the viability, T/C under setting [28] was 33.7%. For the same compound, the viability, T/C by setting is: (second compound 3.16 µM, first compound 0.0316 µM) 27.9%; (second compound 3.16 µM, first compound 0.1 µM) 25%; (second compound 3.16 µM, first compound 0.316 µM) 23.7%; (second compound 3.16 µM, first compound 1 µM) 23.3%; (second compound 3.16 µM, first compound 3.16 µM) 26.2%; (second compound 3.16 µM, first compound 10 µM) 10.8%. Moreover, the viability, T/C by setting is: (second compound 10 µM, first compound 0.0316 µM) 16.9%; (second compound 10 µM, first compound 0.1 µM) 18.7%; (second compound 10 µM, first compound 0.316 µM) 16.6%; (second compound 10 µM, first compound 1 µM) 17.8%; (second compound 10 µM, first compound 3.16 µM) 17.2%; (second compound 10 µM, first compound 10 µM) 1.7%.

Values taken from PubChem BioAssay AID1963982 (Molecular Pharmacology Branch, DTP, NCI, 2024).
